System: Pancreas (Mia-PaCa)
Assay: Pancreas (Mia-PaCa) model, tumor weight
Type: in vivo, mice
Conditions: 80 mg/kg i.p. on days 1,4,7 and 10; c1 = day 40
Procedure: The dose response effect of carbendazim in mice infected with various cancer types was studied in standard screening tests.
The results of these studies conducted to study the dosage response of carbendazim on various cancer types are summarized below. […] Efficacy of carbendazim has been shown in the following cancers:
In the Pancreas (Mia-PaCa) model, carbendazim at 3000 and 4000 (mg/kg, twice weekly) is as good as or better than gemcitabine. At 2000 mg/kg the carbendazim was not as effective after 21 days. Gemcitabine was given on days 1,4,7 and 10 i.p.; the carbendazim was given p.o. twice weekly.

**Q.** Which tumor weight does the source give for Nc1ccn([C@@H]2O[C@H](CO)[C@@H](O)C2(F)F)c(=O)n1 [Gemcitabine, reference compound] here?
**A.** Its tumor weight is 503.7 mg.

From patent publication US6362207B1, “Methods of treating viral infections with benzimidazoles” (priority 1995, dated 2002)
